Test results taken from publication PMC5601625, “Defining a therapeutic window for kinase inhibitors in leukemia to avoid neutropenia” (Oncotarget, 2017).
Read-outs that look alike come from different tables or passages of the source.

Tests used:
Experiment in all cases: Cell Titer Glo cell viability assay, 48 h
Assay type in all cases: cell-based, human
Conditions in all cases: 48 h, mean of 2 independent experiments, 0 = less than 10 nM, cell line not given, read-out: IC50 of inhibitors on cell lines, m (mean)
EOL-1 = tested on: EOL-1
Procedure: (§1) The activity of the kinase inhibitor collection against a panel of human leukemia cell lines was determined in cell viability assays run over 48 h using the Cell Titer Glo reagent.
(§2) Figure 1 Effects of kinase inhibition on the proliferation of leukemia cells A. Human leukemia cell lines were treated with duplicate serial dilutions of kinase inhibitors and the effect on cell viability was determined by Cell Titer Glo assay after 48 hours. […] HL-60 cells were treated with serial dilutions of mTor/PI3K B. and MEK C. inhibitors and the effect on cell viability was determined after 48 hours. Data shown is the mean ± SEM of 3 independent experiments.
(§3) Leukemia and lymphoma cell lines were grown in RPMI containing 10% FCS. […] Cell lines are routinely tested for mycoplasma and genotyped by short tandem repeating (STR) profiling to confirm identity.
(§4) Compounds were obtained from SynMedChem and dissolved at […] in DMSO. Serial 2-fold dilutions of each compound were prepared in DMSO using a liquid handling robot (Janus, Perkin Elmer). Each dilution (100nL) was transferred to duplicate tissue culture plates containing 50 μL of media containing 5 × 10^3 cells using a 384 well pin tool. Cells were incubated for 48 h and cell viability was determined using Cell Titer Glow reagents as described by the manufacturer (Promega). Data was acquired using a luminescent plate reader (Envision, Perkin Elmer) and analysed using Activity Base (IDBS, Guilford, UK) and visualised using Spotfire (TIBCO, Palo Alto, CA) as described previously. Each cell line was assayed in independent experiments on at least two occasions. […] Serial 2-fold dilutions of each compound were prepared in media containing 0.2% DMSO and 50 μl of each dilution was added to 10^4 cells in 50 μl of media. Cells were incubated for 48 h and cell viability was determined using Cell Titer Glow assay as described above.

HEL.92.1.7 = tested on: HEL.92.1.7
Procedure: as §1, §2, §3, §4

HL-60 = tested on: HL-60
Procedure: as §1, §2, §3, §4

JURKAT = tested on: JURKAT
Procedure: as §1, §2, §3, §4

K562 = tested on: K562
Procedure: as §1, §2, §3, §4

KU-812 = tested on: KU-812
Procedure: as §1, §2, §3, §4

MEG-01 = tested on: MEG-01
Procedure: as §1, §2, §3, §4

MOLT4 = tested on: MOLT4
Procedure: as §1, §2, §3, §4

MV4;11 = tested on: MV4;11
Procedure: as §1, §2, §3, §4

OCI-AML3 = tested on: OCI-AML3
Procedure: as §1, §2, §3, §4

THP-1 = tested on: THP-1
Procedure: as §1, §2, §3, §4

U937 = tested on: U937
Procedure: as §1, §2, §3, §4

Compound | IC50 (HL-60) [µM] | IC50 (JURKAT) [µM] | IC50 (K562) [µM] | IC50 (MOLT4) [µM] | IC50 (MV4;11) [µM] | IC50 (OCI-AML3) [µM] | IC50 (THP-1) [µM] | IC50 (U937) [µM] | IC50 (HL-60; Homo sapiens) [µM] | IC50 (JURKAT; Homo sapiens) [µM] | IC50 (K562; Homo sapiens) [µM] | IC50 (MOLT4; Homo sapiens, MOLT-4) [µM] | IC50 (EOL-1) [nM] | IC50 (HEL.92.1.7) [µM] | IC50 (KU-812) [µM] | IC50 (MEG-01) [µM] | IC50 (EOL-1; Homo sapiens, EOL1) [nM] | IC50 (HEL.92.1.7; Homo sapiens) [µM] | IC50 (KU-812; Homo sapiens, KU812) [µM] | IC50 (MEG-01; Homo sapiens) [µM] | other results
CC(=O)Nc1ccc([C@H](C)C(=O)Nc2ncc(C(C)C)s2)cc1 [PHA690509] | 2.35 | 3.21 | 5.98 | 4.68 | 5.89 | 6.23 | 5.98 | 1.05 | – | – | – | – | 5310 | 2.88 | 3.93 | 5.39 | – | – | – | – | –
COc1nccc(-c2c(-c3ccc(F)cc3)ncn2C2CCNCC2)n1 [SB242235] | – | – | – | – | – | – | – | – | > 10 | > 10 | > 10 | > 10 | – | – | – | – | 510 | > 10 | > 10 | 2.18 | IC50 (MV4;11; Homo sapiens): 6.16 µM; IC50 (OCI-AML3; Homo sapiens, OCI-AML-3): > 10 µM; IC50 (THP-1; Homo sapiens): > 10 µM; IC50 (U937; Homo sapiens, U-937): > 10 µM
OCCC#Cc1nc(-c2ccc(F)cc2)c(-c2ccncc2)n1CCCc1ccccc1 [RWJ-67657] | – | – | – | – | – | – | – | – | > 10 | > 10 | > 10 | > 10 | – | – | – | – | 3590 | > 10 | 5.77 | > 10 | IC50 (MV4;11; Homo sapiens): 8.28 µM; IC50 (OCI-AML3; Homo sapiens, OCI-AML-3): > 10 µM; IC50 (THP-1; Homo sapiens): > 10 µM; IC50 (U937; Homo sapiens, U-937): 8.05 µM
CN(C)CCOc1ccc(-c2nc(-c3ccncc3)c(-c3ccc4c(c3)CC/C4=N\O)[nH]2)cc1 [SB590885] | – | – | – | – | – | – | – | – | 1.41 | 3.76 | 4.06 | 5.93 | – | – | – | – | 1300 | 5.26 | 5.01 | 5.04 | IC50 (MV4;11; Homo sapiens): 2.59 µM; IC50 (OCI-AML3; Homo sapiens, OCI-AML-3): 2.71 µM; IC50 (THP-1; Homo sapiens): 3.31 µM; IC50 (U937; Homo sapiens, U-937): 3.42 µM

The next lines start with results.

IC50 (HL-60) [µM] | IC50 (JURKAT) [µM] | IC50 (K562) [µM] | IC50 (MOLT4) [µM] | IC50 (MV4;11) [µM] | IC50 (OCI-AML3) [µM] | IC50 (THP-1) [µM] | IC50 (U937) [µM] | IC50 (HL-60; Homo sapiens) [µM] | IC50 (JURKAT; Homo sapiens) [µM] | IC50 (K562; Homo sapiens) [µM] | IC50 (MOLT4; Homo sapiens, MOLT-4) [µM] | Compound | IC50 (EOL-1) [nM] | IC50 (HEL.92.1.7) [µM] | IC50 (KU-812) [µM] | IC50 (MEG-01) [µM] | IC50 (EOL-1; Homo sapiens, EOL1) [nM] | IC50 (HEL.92.1.7; Homo sapiens) [µM] | IC50 (KU-812; Homo sapiens, KU812) [µM] | IC50 (MEG-01; Homo sapiens) [µM] | other results
> 10 | > 10 | 2.74 | > 10 | 9.71 | > 10 | > 10 | > 10 | – | – | – | – | O=C1NC(=O)/C(=C/c2cccc(C(F)(F)F)c2)S1 [SMI-4a] | 130 | > 10 | 4.54 | 5.78 | – | – | – | – | –
– | – | – | – | – | – | – | – | 7.28 | 6.28 | 2.73 | 6.79 | COc1cc2c(Nc3ccc(Br)cc3F)ncnc2cc1OCC1CCN(C)CC1 [Vandetanib] | – | – | – | – | 190 | > 10 | 0.82 | 1.51 | IC50 (MV4;11; Homo sapiens): 0.86 µM; IC50 (OCI-AML3; Homo sapiens, OCI-AML-3): > 10 µM; IC50 (THP-1; Homo sapiens): > 10 µM; IC50 (U937; Homo sapiens, U-937): 9.46 µM
4.82 | 3.94 | 9.65 | 6.99 | 7.33 | 3.88 | 8.78 | 2.39 | – | – | – | – | Nc1ccc(C(=O)Nc2cccc(-c3nc(N4CCOCC4)c4oc5ncccc5c4n3)c2)cn1 [YM201636] | 5880 | 7.14 | 4.28 | 9.12 | – | – | – | – | –
> 10 | > 10 | > 10 | > 10 | > 10 | > 10 | > 10 | > 10 | – | – | – | – | NC(=O)c1ccc2[nH]ccc2c1 [SD169] | 5120 | > 10 | > 10 | > 10 | – | – | – | – | –
> 10 | 9.84 | 9.16 | > 10 | 0.65 | 9.72 | > 10 | 9.85 | – | – | – | – | Cc1cc(C(C)Nc2ccccc2)c2nc(N3CCOCC3)cc(=O)n2c1 (stereo not drawn) [TGX221] | 430 | > 10 | > 10 | > 10 | – | – | – | – | –
